Patent US10750729B2, “Pig for atrioventricular block model, monkey for atrioventricular block model, guinea pig for atrioventricular block model, and use thereof” (Toho University, priority 2012, dated 2020)
Values joined by “and” are separate entries in the source; they are usually repeats but may differ in a detail not shown here. Equal entries are not always repeated.

Key:
mouse = details: dose 10 times to 30 times greater than that for human; cited from earlier work
[1] = test system: Extremely small-size miniature pigs (Microminipig); assay: Test Example 1: electrocardiogram of halothane-anesthetized extremely small-size miniature pigs; assay type: in vivo; details: pig; for Heart rate (HR) / PR interval / QT interval / RR interval: 0.1 mg/kg/10 min i.v., individuals #1, #2, 0.1 mg/kg
Source text: Extremely small-size miniature pigs (trade name: Microminipig, body weight: about 10 kg, male, obtained from Fuji Micra Inc.) were each anesthetized by allowing them to inhale 100% by volume oxygen and 4% by volume vaporized halothane (product of Takeda Pharmaceutical Company Limited.). After insertion of a tracheal cannula, an artificial respirator was used to ventilate it with 100% by volume oxygen and 1% by volume vaporized halothane. Here, the artificial respirator for experimental animals was set to a tidal volume of 10 mL/kg and a respiration rate of 20 strokes/min. Next, a cannula for drug administration was inserted to their left femoral vein. Then, ECG standard limb II leads was continuously recorded.
Each of the extremely small-size miniature pigs (n=2) of Example 1 was recorded for an electrocardiogram before drug administration.
(§1) Fingolimod (FTY720, product of Sigma-Aldrich Inc.) was dissolved in physiological saline (product of Otsuka Pharmaceutical Factory, Inc.) so as to have a concentration of 0.1 mg/mL.
(§2) After the evaluation of base control, the cannula for drug administration was inserted, and the above-prepared FTY720 solution was intravenously administered to each of the extremely small-size miniature pigs (n=2) of Example 1 for 10 min at a dose of 0.1 mg/kg. An electrocardiogram was recorded for 60 min from the start of administration of the FTY720 solution.

[2] = test system: Monkeys (Macaca fascicularis); assay: Test Example 2: electrocardiogram of halothane-anesthetized monkeys; assay type: in vivo; details: monkey, 50 min after the administration
Procedure: Monkeys (Macaca fascicularis, body weight: about 3 kg, male, produced in China, purchased from a domestic breeder) were each anesthetized by intravenously administering thereto sodium thiopental (product of Mitsubishi Tanabe Pharma Corporation) at 25 mg/kg. After insertion of a tracheal cannula, an artificial respirator was used to ventilate it with 100% by volume oxygen and 1% by volume vaporized halothane. Here, the artificial respirator for experimental animals was set to a tidal volume of 20 mL/kg and a respiration rate of 15 strokes/min. Next, a cannula for drug administration was inserted to their left femoral vein. Then, ECG standard limb II leads was continuously recorded.
Each of the monkeys (n=2) of Example 2 was recorded for an electrocardiogram before drug administration.
as §1
as §2, with “the monkeys” for “the extremely small-size miniature pigs”, “Example 2” for “Example 1”

human = details: 366 cases, 1.25 mg/day, Holter ECG one day after administration; cited from earlier work
[3] = 10 min after the administration
[4] = 60 min after the administration
[5] = 0.1 mg/kg/10 min i.v., individuals #1, #2, 0.1 mg/kg

Structure (SMILES): CCCCCCCCc1ccc(CCC(N)(CO)CO)cc1 [FTY720, Fingolimod]
- occurrence of atrioventricular block (mouse): not reported
- QT interval change versus base control ([1]; 0.1 mg/kg i.v., 10 min after the administration): prolongation of QT interval was observed
- PR interval change versus base control ([1]; 0.1 mg/kg i.v., 60 min after the administration): prolongation of PR interval was also observed
- Heart rate (HR) [1, 3]: 137 beats/min and 192 beats/min
- PR interval [1, 3]: 78 ms and 71 ms
- QT interval [1, 3]: 271 ms and 221 ms
- RR interval [1, 3]: 438 ms and 311 ms
- Heart rate (HR) [1, 4]: 197 beats/min and 108 beats/min
- PR interval [1, 4]: 75 ms and 89 ms
- QT interval [1, 4]: 227 ms and 271 ms
- RR interval [1, 4]: 304 ms and 552 ms
- PR interval change versus base control ([2]; 0.1 mg/kg i.v.): prolongation of PR interval was observed
- Heart rate (HR) ([2]; 0.1 mg/kg/10 min i.v., individuals #1, #2): 105 beats/min
- Heart rate (HR) [2, 5]: 104 beats/min
- PR interval [2, 5]: 71 ms and 110 ms
- cases that developed advanced atrioventricular block (2:1 atrioventricular block) (human): 3.4%
- cases that developed second-degree atrioventricular block (Mobitz type I or type II) (human): 6.6%
- cases that developed third-degree atrioventricular block (complete atrioventricular block) (human): 0.3%
